According to patent US12410124B2 (priority 2019, dated 2025):

Columns and labels:
Format in all cases: in vivo
substantia nigra p-α-s = test: Substantia nigra p-α-s protein expression in MPTP Parkinson's disease model mouse (immunofluorescence); conditions: percentage of mean intensity of blank control group, gavage 21 days after MPTP modeling
substantia nigra TH = test: Substantia nigra TH expression in MPTP Parkinson's disease model mouse (immunofluorescence); conditions: percentage of mean intensity of blank control group, gavage 21 days after MPTP modeling
substantia nigra pp38 = test: Substantia nigra pp38 protein expression in MPTP Parkinson's disease model mouse (immunofluorescence); conditions: percentage of mean intensity of blank control group, gavage 21 days after MPTP modeling
substantia nigra CD11b = test: Number of substantia nigra microglial cells with CD11b positive expression in MPTP Parkinson's disease model mouse (immunohistochemistry); conditions: for Positive cell number (microglial cells with CD11b positive expression): substantia nigra, MPTP Parkinson's disease model mouse, immunohistochemistry
hippocampus CD11b = test: Number of hippocampus microglial cells with CD11b positive expression in MPTP Parkinson's disease model mouse (immunohistochemistry); conditions: for Positive cell number (microglial cells with CD11b positive expression): hippocampus, MPTP Parkinson's disease model mouse, immunohistochemistry
substantia nigra GFAP = test: Number of substantia nigra astrocytes with GFAP positive expression in MPTP Parkinson's disease model mouse (immunohistochemistry); conditions: for Positive cell number (astrocytes with GFAP positive expression): substantia nigra, MPTP Parkinson's disease model mouse, immunohistochemistry

SMILES | Expression (Immunofluorescence intensity %) (substantia nigra p-α-s) [%] | Expression (Immunofluorescence intensity %) (substantia nigra TH) [%] | Expression (Immunofluorescence intensity %) (substantia nigra pp38) [%] | number of substantia nigra microglial cells with CD11b positive expression compared with the styryl sulfone prototype compounds (substantia nigra CD11b) | Positive cell number (microglial cells with CD11b positive expression) (substantia nigra CD11b) | number of hippocampus microglial cells with CD11b positive expression compared with the styryl sulfone prototype compounds (hippocampus CD11b) | Positive cell number (microglial cells with CD11b positive expression) (hippocampus CD11b) | number of substantia nigra astrocytes with GFAP positive expression compared with the styryl sulfone prototype compounds (substantia nigra GFAP) | Positive cell number (astrocytes with GFAP positive expression) (substantia nigra GFAP)
CCN(CC)C(=O)Oc1ccc(/C=C/S(=O)(=O)Cc2ccc(C(F)(F)F)cc2)cc1OC(=O)N(CC)CC [Compound B1-1, (E)-4-{2-[(4-trifluoromethylphenyl)mesyl]ethenyl}-1,2-phenylenebis(diethylcarbamate)] | 82.54 ± 9.34 | 95.86 ± 4.43 | 76.35 ± 21.90 | significantly lower | 32 ± 4 | significantly lower | 9 ± 2 | significantly lower | 88 ± 5
CC[Si](CC)(Oc1ccc(C(Cl)S(=O)(=O)/C=C/c2ccc(OC(=O)N3CC(C)OC(C)C3)c(OC(=O)c3cccc(Cl)c3OC)c2)cc1)c1ccccc1 (stereo not drawn) [Compound R1-5, (E)-4-{2-[4-(diethylphenylsiloxy)phenylchloromesyl]ethenyl}-2-(3-chloro-2-methoxybenzoyloxy)phenyl-2,6-dimethylmorpholine-4-carboxylate] | 125.28 ± 9.35 | 92.45 ± 3.93 | 101.93 ± 7.44 | – | 39 ± 6 | – | 17 ± 2 | – | 90 ± 6
